Experimental data reported in publication PMC6968694 (Emerging Microbes & Infections, 2020).

Biological target: T1, MtbPurT (Mycobacterium tuberculosis, UniProt P95197)
T1 construct: gene purT
Test: biochemical

T1 sequence (P95197 entry or part of it): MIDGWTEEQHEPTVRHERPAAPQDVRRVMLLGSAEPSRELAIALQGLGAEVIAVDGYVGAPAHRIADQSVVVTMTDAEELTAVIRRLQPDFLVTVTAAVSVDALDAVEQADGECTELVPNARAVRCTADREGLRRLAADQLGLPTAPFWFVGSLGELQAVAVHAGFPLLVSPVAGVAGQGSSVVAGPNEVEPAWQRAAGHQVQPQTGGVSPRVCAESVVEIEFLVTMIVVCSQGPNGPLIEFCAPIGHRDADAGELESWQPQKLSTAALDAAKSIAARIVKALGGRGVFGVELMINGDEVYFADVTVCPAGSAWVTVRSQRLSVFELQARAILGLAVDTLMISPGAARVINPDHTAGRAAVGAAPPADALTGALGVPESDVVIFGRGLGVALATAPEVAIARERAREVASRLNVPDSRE

SMILES: Nc1ncnc2c1ncn2[C@@H]1O[C@H](CO[P@](=O)(O)O[P@](=O)(O)O[P@@](=O)(O)S)[C@@H](O)[C@H]1O [ATPγS]
- Kd: 207 ± 8.02 µM
